How the values were obtained:
[1] = Solubility of favipiravir in supercritical CO2; type: physicochemical
[2] = type: physicochemical; conditions: binary system favipiravir-SC-CO2, from model
[3] = high permeability, low water solubility; cited from earlier work

NC(=O)c1nc(F)c[nH]c1=O [Favipiravir]
y2 × 10^4 (Mole Fraction) ([1]; SC-CO2, 308 K, 12 MPa, density 768.42 kg/m^3): 0.53 mole fraction × 10^4 | y2 × 10^4 (Mole Fraction) ([1]; SC-CO2, 308 K, 15 MPa, density 816.06 kg/m^3): 0.87 mole fraction × 10^4 | y2 × 10^4 (Mole Fraction) ([1]; SC-CO2, 308 K, 18 MPa, density 848.87 kg/m^3): 1.44 mole fraction × 10^4 | y2 × 10^4 (Mole Fraction) ([1]; SC-CO2, 308 K, 21 MPa, density 874.40 kg/m^3): 2.31 mole fraction × 10^4 | y2 × 10^4 (Mole Fraction) ([1]; SC-CO2, 308 K, 24 MPa, density 895.54 kg/m^3): 3.42 mole fraction × 10^4 | y2 × 10^4 (Mole Fraction) ([1]; SC-CO2, 308 K, 27 MPa, density 913.69 kg/m^3): 4.09 mole fraction × 10^4 | y2 × 10^4 (Mole Fraction) ([1]; SC-CO2, 308 K, 30 MPa, density 929.68 kg/m^3): 5.13 mole fraction × 10^4 | y2 × 10^4 (Mole Fraction) ([1]; SC-CO2, 318 K, 12 MPa, density 659.73 kg/m^3): 0.37 mole fraction × 10^4 | y2 × 10^4 (Mole Fraction) ([1]; SC-CO2, 318 K, 15 MPa, density 743.17 kg/m^3): 0.80 mole fraction × 10^4 | y2 × 10^4 (Mole Fraction) ([1]; SC-CO2, 318 K, 18 MPa, density 790.18 kg/m^3): 1.30 mole fraction × 10^4 | y2 × 10^4 (Mole Fraction) ([1]; SC-CO2, 318 K, 21 MPa, density 823.70 kg/m^3): 2.72 mole fraction × 10^4 | y2 × 10^4 (Mole Fraction) ([1]; SC-CO2, 318 K, 24 MPa, density 850.10 kg/m^3): 4.29 mole fraction × 10^4 | y2 × 10^4 (Mole Fraction) ([1]; SC-CO2, 318 K, 27 MPa, density 872.04 kg/m^3): 5.41 mole fraction × 10^4 | y2 × 10^4 (Mole Fraction) ([1]; SC-CO2, 318 K, 30 MPa, density 890.92 kg/m^3): 6.48 mole fraction × 10^4 | y2 × 10^4 (Mole Fraction) ([1]; SC-CO2, 328 K, 12 MPa, density 506.85 kg/m^3): 0.08 mole fraction × 10^4 | y2 × 10^4 (Mole Fraction) ([1]; SC-CO2, 328 K, 15 MPa, density 654.94 kg/m^3): 0.60 mole fraction × 10^4 | y2 × 10^4 (Mole Fraction) ([1]; SC-CO2, 328 K, 18 MPa, density 724.13 kg/m^3): 1.39 mole fraction × 10^4 | y2 × 10^4 (Mole Fraction) ([1]; SC-CO2, 328 K, 21 MPa, density 768.74 kg/m^3): 3.21 mole fraction × 10^4 | y2 × 10^4 (Mole Fraction) ([1]; SC-CO2, 328 K, 24 MPa, density 801.92 kg/m^3): 4.75 mole fraction × 10^4 | y2 × 10^4 (Mole Fraction) ([1]; SC-CO2, 328 K, 27 MPa, density 828.51 kg/m^3): 6.58 mole fraction × 10^4 | y2 × 10^4 (Mole Fraction) ([1]; SC-CO2, 328 K, 30 MPa, density 850.83 kg/m^3): 7.65 mole fraction × 10^4 | y2 × 10^4 (Mole Fraction) ([1]; SC-CO2, 338 K, 12 MPa, density 384.17 kg/m^3): 0.03 mole fraction × 10^4 | y2 × 10^4 (Mole Fraction) ([1]; SC-CO2, 338 K, 15 MPa, density 555.23 kg/m^3): 0.37 mole fraction × 10^4 | y2 × 10^4 (Mole Fraction) ([1]; SC-CO2, 338 K, 18 MPa, density 651.18 kg/m^3): 1.32 mole fraction × 10^4 | y2 × 10^4 (Mole Fraction) ([1]; SC-CO2, 338 K, 21 MPa, density 709.69 kg/m^3): 3.92 mole fraction × 10^4 | y2 × 10^4 (Mole Fraction) ([1]; SC-CO2, 338 K, 24 MPa, density 751.17 kg/m^3): 5.6 mole fraction × 10^4 | y2 × 10^4 (Mole Fraction) ([1]; SC-CO2, 338 K, 27 MPa, density 783.29 kg/m^3): 7.57 mole fraction × 10^4 | y2 × 10^4 (Mole Fraction) ([1]; SC-CO2, 338 K, 30 MPa, density 809.58 kg/m^3): 9.05 mole fraction × 10^4 | total heat (ΔHtotal) [2]: 16.75 kcal/mol | vaporization heat (ΔHvap) [2]: 21.54 kcal/mol | class in the Biopharmaceutics Classification System (BCS) [3]: class II

— PMC8815272 (The Journal of Supercritical Fluids, 2022)
